From ChEMBL document CHEMBL1201862, “PubChem BioAssay data set” (2004)
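Dose response: 5 concentrations. Exposure: 48 h. Format: 96-well plates. Endpoint: linear interpolation; highest concentration if not reached. At the GI50, growth is halved.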 Active and inactive are the calls of the source. Rule as the data show it: active = GI50 up to about 1.1 µM and inactive = higher.

Assays:
Test in all cases: NCI-60 cell line screen, 48 h
[1] = system: ACHN
[2] = system: COLO 205
[3] = system: DLD-1
[4] = system: HCT-116
[5] = system: HOP-92
[6] = system: IGROV-1
[7] = system: KM-20L2
[8] = system: KM12
[9] = system: LOX IMVI
[10] = system: NCI-H226
[11] = system: OVCAR-5
[12] = system: SN12C
[13] = system: SNB-75
[14] = system: SW-620
[15] = system: UACC-257
[16] = system: A498

Measured: GI50

CC(C)C(NCc1c2ccccc2nc2ccccc12)C(=O)O (stereo not given)
inactive: [1] 35 µM | [2] 72.8 µM | [3] 23.8 µM | [4] 26.4 µM | [5] 12.4 µM | [6] 27.4 µM | [7] 58.2 µM | [8] 33.3 µM | [9] 30.5 µM | [10] > 100 µM | [11] > 100 µM | [12] 50 µM | [13] 61.8 µM | [14] 39.9 µM | [15] 54.5 µM

Cc1cccc(C)c1NC(=O)C1C(=O)N(c2c(C)cccc2C)C(=O)/C1=N\NC(N)=S (stereo not given)
inactive: [16] > 100 µM | [1] > 100 µM | [3] > 100 µM | [4] 58.2 µM | [5] > 100 µM | [6] > 100 µM | [7] 82.8 µM | [8] > 100 µM | [11] > 100 µM | [12] > 100 µM | [14] > 100 µM | [15] > 100 µM

COc1cc(/C=C2\C(=O)N(C(=O)c3ccc(NC(C)=O)cc3)N=C2C)ccc1O
inactive: [1] > 100 µM | [2] > 100 µM | [3] > 100 µM | [4] > 100 µM | [8] > 100 µM | [9] > 100 µM | [10] > 100 µM | [11] > 100 µM | [12] > 100 µM | [13] > 100 µM | [14] > 100 µM | [15] > 100 µM

OCC1C(/C=C/c2ccoc2)ON2CCCC12 (stereo not given)
inactive: [1] > 100 µM | [2] > 100 µM | [3] > 100 µM | [7] > 100 µM | [8] > 100 µM | [9] > 100 µM | [10] > 100 µM | [11] > 100 µM | [12] > 100 µM | [13] > 100 µM | [14] > 100 µM | [15] > 100 µM

CCOc1ccccc1/N=N/c1c(-c2ccccc2)nn(C(=O)CC(=O)Nc2cccc(C)c2)c1-c1ccccc1
inactive: [1] 54.3 µM | [2] > 100 µM | [3] 62.8 µM | [4] > 100 µM | [5] > 100 µM | [6] > 100 µM | [7] > 100 µM | [8] 94 µM | [9] > 100 µM | [10] > 100 µM | [11] > 100 µM | [12] > 100 µM | [13] 27.4 µM | [14] > 100 µM | [15] > 100 µM

CCc1ccccc1NC(=O)C1=C(C)NC(C)=C(C(=O)Nc2ccccc2CC)C1c1ccc(NC(C)=O)cc1
inactive: [1] 28.5 µM | [2] 58.3 µM | [3] 26.5 µM | [4] 35.2 µM | [5] 25.8 µM | [6] 28.4 µM | [7] 16.4 µM | [8] 28.1 µM | [9] 16.1 µM | [10] 29.4 µM | [11] > 100 µM | [12] 29.8 µM | [13] 21.4 µM | [14] 41.2 µM | [15] 36.3 µM

CN(C)/C(=N/C(=S)Nc1ccccc1)SCc1ccccc1
inactive: [16] 83.8 µM | [1] 45 µM | [2] 14.9 µM | [3] 44.3 µM | [6] 74.3 µM | [8] 7.23 µM | [9] 42 µM | [10] 36.1 µM | [11] > 100 µM | [12] 66.2 µM | [13] 30.3 µM | [14] > 100 µM | [15] 36.6 µM

O=[N+]([O-])c1cccc(C2N3CCCCC3[C@@H]3c4[nH]c5ccccc5c4CCN23)c1 (stereo not given in full)
inactive: [16] 15 µM | [1] 15.9 µM | [2] 13.2 µM | [3] 12.3 µM | [5] 16 µM | [6] 14.9 µM | [7] 11 µM | [11] 16.9 µM | [12] 14.5 µM | [14] 20 µM | [15] 14 µM

CCN(CC)CCCn1cnc2ncccc2c1=O
inactive: [1] > 100 µM | [2] > 100 µM | [3] > 100 µM | [4] > 100 µM | [5] > 100 µM | [6] > 100 µM | [8] > 100 µM | [9] > 100 µM | [10] > 100 µM | [11] > 100 µM | [12] > 100 µM | [13] > 100 µM | [14] > 100 µM

Cc1ccc(-c2cc(=S)n(-c3ccccc3)c3[nH]c(=S)n(-c4ccccc4)c(=N)c23)cc1
inactive: [1] > 100 µM | [2] > 100 µM | [3] > 100 µM | [4] > 100 µM | [5] > 100 µM | [6] > 100 µM | [7] > 100 µM | [8] > 100 µM | [10] > 100 µM | [11] > 100 µM | [13] > 100 µM | [14] > 100 µM | [15] > 100 µM

c1ccc(-c2nnc(-c3nn(-c4ccccc4)c4nc5ccccc5nc34)o2)cc1
inactive: [1] 92.3 µM | [2] 93.8 µM | [3] 25.1 µM | [4] 34.8 µM | [6] > 100 µM | [7] > 100 µM | [8] > 100 µM | [9] > 100 µM | [10] 18.2 µM | [11] > 100 µM | [12] > 100 µM | [13] > 100 µM | [14] 92.3 µM | [15] 64.3 µM
